Structures can show the parent of a compound that is named as a salt.
Experiments:
Assay in all cases: Substrate hydrolysis on Columbia agar
Assay type in all cases: cell-based
[1] = system: P. penneri; conditions: P. penneri PPE 1; 300 mg/l; 18 hours
[2] = system: Enterococcus faecalis; conditions: 300 mg/l, 18 hours
[3] = system: Serratia marcescens; conditions: Serratia marcescens NCTC 10211; 300 mg/l; 18 hours
[4] = system: Streptococcus mitis; conditions: Streptococcus mitis NCTC 12261; 300 mg/l; 18 hours
[5] = system: Vibrio metschnikovii; conditions: Vibrio metschnikovii NCTC 8443; 300 mg/l; 18 hours
[6] = system: Aeromonas caviae; set-up: key to the marks not given beside the values; conditions: Aeromonas caviae NCTC 10852; 300 mg/l; 18 hours
[7] = system: Enterococcus casseflavus; conditions: Enterococcus casseflavus NCTC 12361; 300 mg/l; 18 hours
[8] = system: Enterococcus durans; conditions: Enterococcus durans NCTC 8307; 300 mg/l; 18 hours
[9] = system: P. aeruginosa; conditions: 300 mg/l, 18 hours
[10] = system: Aeromonas hydrophila; set-up: key to the marks not given beside the values; conditions: Aeromonas hydrophila NCTC 8049; 300 mg/l; 18 hours
[11] = system: Vibrio harveyi; conditions: Vibrio harveyi NCTC 11346; 300 mg/l; 18 hours
[12] = system: Vibrio anguillarum; conditions: Vibrio anguillarum NCTC 12159; 300 mg/l; 18 hours
[13] = system: Salmonella typhi; conditions: Salmonella typhi NCTC 8385; 300 mg/l; 18 hours
[14] = system: Listeria innocua; conditions: Listeria innocua PHLS wild; 300 mg/l; 18 hours
[15] = system: Vibrio cincinnatiensis; conditions: Vibrio cincinnatiensis NCTC 12012; 300 mg/l; 18 hours
[16] = system: Vibrio hollisae; conditions: Vibrio hollisae NCTC 11640; 300 mg/l; 18 hours
[17] = system: Salmonella typhimurium; conditions: Salmonella typhimurium NCTC 74; 300 mg/l; 18 hours
[18] = system: Streptococcus milleri; conditions: Streptococcus milleri wild; 300 mg/l; 18 hours
[19] = system: A. calcoaceticus; conditions: A. calcoaceticus ATCC 7844; 300 mg/l; 18 hours
[20] = system: Salmonella panama; conditions: Salmonella panama SAX 58; 300 mg/l; 18 hours
[21] = system: Providencia stuartii; conditions: 300 mg/l, 18 hours
[22] = system: A. baumanii; conditions: A. baumanii ATCC 19606; 300 mg/l; 18 hours
[23] = system: Bacillus licusniforms; conditions: Bacillus licusniforms NCIMB 9375; 300 mg/l; 18 hours
[24] = system: P. rettgeri; conditions: P. rettgeri NCTC 7475; 300 mg/l; 18 hours
[25] = system: Streptococcus sanguis; conditions: Streptococcus sanguis NCTC 7863; 300 mg/l; 18 hours
[26] = system: Staphylococcus epidermidis; conditions: 300 mg/l, 18 hours
[27] = system: Bacillus cereus; conditions: Bacillus cereus NCTC; 300 mg/l; 18 hours
[28] = system: E. coli 0157; conditions: 300 mg/l, 18 hours
[29] = system: Y. enterocolitica; conditions: 300 mg/l, 18 hours
[30] = system: E. coli; conditions: 300 mg/l, 18 hours
[31] = Staphylococcus epidermidis RB60
[32] = Staphylococcus epidermidis RB62
[33] = Staphylococcus epidermidis RB63
[34] = Staphylococcus epidermidis RB64
[35] = Staphylococcus epidermidis RB65

3′,4′-dihydroxyflavone-4′-β-D-glucopyranoside sodium salt [DHF-glucoside]
++: Hydrolysis by Gram positive organisms ([2]; Enterococcus faecalis 1) | Hydrolysis by Gram positive organisms ([2]; Enterococcus faecalis 2) | Hydrolysis by Gram positive organisms ([2]; Enterococcus faecalis 3) | Hydrolysis by Gram positive organisms ([2]; Enterococcus faecalis 4) | Hydrolysis by Gram positive organisms ([2]; Enterococcus faecalis 5) | Hydrolysis by Gram positive organisms ([2]; Enterococcus faecalis 6) | Hydrolysis by Gram positive organisms ([2]; Enterococcus faecalis 7) | Hydrolysis by Gram negative bacteria [6] | Hydrolysis by Gram positive organisms [7] | Hydrolysis by Gram positive organisms [8] | Hydrolysis by Gram negative bacteria [10] | Hydrolysis by Gram positive organisms [14] | Hydrolysis by Gram positive organisms [26, 34]
+: Hydrolysis by Gram negative bacteria [3] | Hydrolysis by Gram negative bacteria [11] | Hydrolysis by Gram negative bacteria [15] | Hydrolysis by Gram negative bacteria ([21]; Providencia stuartii PST 1) | Hydrolysis by Gram negative bacteria ([21]; Providencia stuartii PST 2) | Hydrolysis by Gram positive organisms [23] | Hydrolysis by Gram negative bacteria [24] | Hydrolysis by Gram positive organisms [27]
−: Hydrolysis by Gram negative bacteria [1] | Hydrolysis by Gram positive organisms [4] | Hydrolysis by Gram negative bacteria [5] | Hydrolysis by Gram negative bacteria ([9]; P. aeruginosa ATCC 10145) | Hydrolysis by Gram negative bacteria ([9]; P. aeruginosa NCTC 10662) | Hydrolysis by Gram negative bacteria [12] | Hydrolysis by Gram negative bacteria [13] | Hydrolysis by Gram negative bacteria [16] | Hydrolysis by Gram negative bacteria [17] | Hydrolysis by Gram positive organisms [18] | Hydrolysis by Gram negative bacteria [19] | Hydrolysis by Gram negative bacteria [20] | Hydrolysis by Gram negative bacteria [22] | Hydrolysis by Gram positive organisms [25] | Hydrolysis by Gram positive organisms [26, 31] | Hydrolysis by Gram positive organisms [26, 32] | Hydrolysis by Gram positive organisms [26, 33] | Hydrolysis by Gram positive organisms [26, 35] | Hydrolysis by Gram negative bacteria ([28]; E. coli 0157 NCTC 12079) | Hydrolysis by Gram negative bacteria ([28]; E. coli 0157 NCTC 12080) | Hydrolysis by Gram negative bacteria ([28]; E. coli 0157 NCTC 12900) | Hydrolysis by Gram negative bacteria ([28]; E. coli 0157 NCTC 13125) | Hydrolysis by Gram negative bacteria ([28]; E. coli 0157 NCTC 13126) | Hydrolysis by Gram negative bacteria ([28]; E. coli 0157 NCTC 13127) | Hydrolysis by Gram negative bacteria ([28]; E. coli 0157 NCTC 13128) | Hydrolysis by Gram negative bacteria ([29]; Y. enterocolitica NCTC 10460) | Hydrolysis by Gram negative bacteria ([29]; Y. enterocolitica NCTC 11176) | Hydrolysis by Gram negative bacteria ([29]; Y. enterocolitica NCTC 11177) | Hydrolysis by Gram negative bacteria ([29]; Y. enterocolitica NCTC 11600) | Hydrolysis by Gram negative bacteria ([30]; E. coli ECO 2) | Hydrolysis by Gram negative bacteria ([30]; E. coli ECO 3) | Hydrolysis by Gram negative bacteria ([30]; E. coli ECO 4) | Hydrolysis by Gram negative bacteria ([30]; E. coli ECO 5) | Hydrolysis by Gram negative bacteria ([30]; E. coli ECO 6) | Hydrolysis by Gram negative bacteria ([30]; E. coli ECO 7) | Hydrolysis by Gram negative bacteria ([30]; E. coli ECO 8) | Hydrolysis by Gram negative bacteria ([30]; E. coli ECO 9) | Hydrolysis by Gram negative bacteria ([30]; E. coli ECO 10) | Hydrolysis by Gram negative bacteria ([30]; E. coli ECO 11) | Hydrolysis by Gram negative bacteria ([30]; E. coli ECO 12) | Hydrolysis by Gram negative bacteria ([30]; E. coli NCTC 10418)

O=c1cc(-c2ccc(OC3OC(CO)C(O)C3O)c(O)c2)oc2ccccc12 [DHF-riboside, 3′,4′-dihydroxyflavone-4′-β-D-ribofuranoside Sodium Salt]
−: Hydrolysis by Gram negative bacteria [1] | Hydrolysis by Gram positive organisms ([2]; Enterococcus faecalis 1) | Hydrolysis by Gram positive organisms ([2]; Enterococcus faecalis 7) | Hydrolysis by Gram positive organisms [4] | Hydrolysis by Gram positive organisms [7] | Hydrolysis by Gram positive organisms [8] | Hydrolysis by Gram negative bacteria [12] | Hydrolysis by Gram positive organisms [14] | Hydrolysis by Gram negative bacteria [15] | Hydrolysis by Gram negative bacteria [16] | Hydrolysis by Gram positive organisms [18] | Hydrolysis by Gram negative bacteria [19] | Hydrolysis by Gram negative bacteria [22] | Hydrolysis by Gram positive organisms [23] | Hydrolysis by Gram positive organisms [25] | Hydrolysis by Gram positive organisms [27] | Hydrolysis by Gram negative bacteria ([29]; Y. enterocolitica NCTC 10460) | Hydrolysis by Gram negative bacteria ([29]; Y. enterocolitica NCTC 11176) | Hydrolysis by Gram negative bacteria ([29]; Y. enterocolitica NCTC 11177) | Hydrolysis by Gram negative bacteria ([29]; Y. enterocolitica NCTC 11600)
++: Hydrolysis by Gram negative bacteria [3] | Hydrolysis by Gram negative bacteria [5] | Hydrolysis by Gram negative bacteria [6] | Hydrolysis by Gram negative bacteria [10] | Hydrolysis by Gram negative bacteria [11] | Hydrolysis by Gram negative bacteria [13] | Hydrolysis by Gram negative bacteria [17] | Hydrolysis by Gram negative bacteria [20] | Hydrolysis by Gram positive organisms [26, 31] | Hydrolysis by Gram negative bacteria ([28]; E. coli 0157 NCTC 12079) | Hydrolysis by Gram negative bacteria ([28]; E. coli 0157 NCTC 12080) | Hydrolysis by Gram negative bacteria ([28]; E. coli 0157 NCTC 12900) | Hydrolysis by Gram negative bacteria ([28]; E. coli 0157 NCTC 13125) | Hydrolysis by Gram negative bacteria ([28]; E. coli 0157 NCTC 13126) | Hydrolysis by Gram negative bacteria ([28]; E. coli 0157 NCTC 13127) | Hydrolysis by Gram negative bacteria ([28]; E. coli 0157 NCTC 13128) | Hydrolysis by Gram negative bacteria ([30]; E. coli ECO 2) | Hydrolysis by Gram negative bacteria ([30]; E. coli ECO 3) | Hydrolysis by Gram negative bacteria ([30]; E. coli ECO 4) | Hydrolysis by Gram negative bacteria ([30]; E. coli ECO 5) | Hydrolysis by Gram negative bacteria ([30]; E. coli ECO 6) | Hydrolysis by Gram negative bacteria ([30]; E. coli ECO 7) | Hydrolysis by Gram negative bacteria ([30]; E. coli ECO 8) | Hydrolysis by Gram negative bacteria ([30]; E. coli ECO 9) | Hydrolysis by Gram negative bacteria ([30]; E. coli ECO 10) | Hydrolysis by Gram negative bacteria ([30]; E. coli ECO 11) | Hydrolysis by Gram negative bacteria ([30]; E. coli ECO 12) | Hydrolysis by Gram negative bacteria ([30]; E. coli NCTC 10418)
+: Hydrolysis by Gram positive organisms ([2]; Enterococcus faecalis 2) | Hydrolysis by Gram positive organisms ([2]; Enterococcus faecalis 3) | Hydrolysis by Gram positive organisms ([2]; Enterococcus faecalis 4) | Hydrolysis by Gram positive organisms ([2]; Enterococcus faecalis 5) | Hydrolysis by Gram positive organisms ([2]; Enterococcus faecalis 6) | Hydrolysis by Gram negative bacteria ([9]; P. aeruginosa ATCC 10145) | Hydrolysis by Gram negative bacteria ([9]; P. aeruginosa NCTC 10662) | Hydrolysis by Gram negative bacteria ([21]; Providencia stuartii PST 1) | Hydrolysis by Gram negative bacteria ([21]; Providencia stuartii PST 2) | Hydrolysis by Gram negative bacteria [24] | Hydrolysis by Gram positive organisms [26, 32] | Hydrolysis by Gram positive organisms [26, 33] | Hydrolysis by Gram positive organisms [26, 34] | Hydrolysis by Gram positive organisms [26, 35]
